Earlier results, collected in patent US20110092601A1, “LYSINE-SPECIFIC DEMETHYLASE INHIBITORS” (THE JOHNS HOPKINS UNIVERSITY, priority 2007, published 2011).

System: P19 embryonal carcinoma cells
Conditions: P19 embryonal carcinoma cells treated with tranylcypromine

**Q.** Which “Effect on transcription of the Egr1 and Oct4 genes” value does the source give for `N[C@@H]1C[C@H]1c1ccccc1` [tranylcypromine, (1R,2S)-2-phenylcyclopropan-1-amine] here?
**A.** Its value is “transcriptional de-repression of the Egr1 and Oct4 genes”.
